Data as given in patent US20050256034A1, “Dioxolane analogs for improved inter-cellular delivery” (priority 2000, published 2005).
Read-outs that look alike come from different tables or passages of the source.

How the values were obtained:
Assay type in all cases: cell-based
[1] = tested on: CEM cells; experiment: CellTiter 96 cell proliferation assay, 48 h exposure; settings: for effect of es transport inhibitor NBMPR on resistance of CEM cells: presence of NBMPR
Method: The chemosensitivity of suspension cells lines (e.g., CEM or CEM-derivatives) is assessed using the CellTiter 96 ? proliferation assay. […] Chemosensitivity is expressed as 50% (ECso) of the dose response curve determined, e.g., using GraphPad Prism 2.01 (GraphPad Software, San Diego, Calif.). Adherent cell lines (e.g., DU145 or DU145^R) are seeded (˜10^5 cells) in triplicate dishes, 24 h before drug exposure. Growth inhibition is determined by trypsinization and counting cells electronically.

[2] = tested on: SF-268; experiment: MTT assay at 72 hr; settings: Homo sapiens, SF-268, read-out: IC50 (MTT at 72 hr) SF-268, 24 h exposure, single experiments
[3] = tested on: MCF-7; experiment: MTT assay at 72 hr; settings: Homo sapiens, MCF7, read-out: IC50 (MTT at 72 hr) MCF-7, 24 h exposure, single experiments
[4] = tested on: H-460; experiment: MTT assay at 72 hr; settings: Homo sapiens, NCI-H460, read-out: IC50 (MTT at 72 hr) H-460, 24 h exposure, single experiments
[5] = tested on: CCRF-CEM; experiment: MMT or WST-1 assay at 72 hr; settings: Homo sapiens, read-out: IC50 (MMT or WST-1 at 72 hr) CCRF-CEM, 24 h exposure, single experiments
[6] = 3H-Thymidine Incorporation Assay (24 hr drug, wash, another 48 hr; 72 hr assay); settings: for IC50: 24 hr exposure to drug, wash, another 48 hr
[7] = tested on: CEM/dCK-; experiment: MMT or WST-1 assay at 72 hr; settings: for Resistance Factor: CEM/dCK- versus CCRF-CEM
[8] = CCRF-CEM, read-out: IC50 (3H-TdR incorporation at 72 hr) CCRF-CEM 24 h, CCRF-CEM T-cell leukemia
[9] = CCRF-CEM, read-out: IC50 (3H-TdR incorporation at 72 hr) CEM/dCK- 24 h, CEM/dCK- (CCRF-CEM deoxycytidine kinase-deficient)
[10] = NCI-H460, read-out: IC50 (3H-TdR incorporation at 72 hr) H-460 24 h, H-460 human lung carcinoma

Row | Structure (SMILES) | effect of es transport inhibitor NBMPR on resistance of CEM cells [1] | IC50 [2] | IC50 [6, 8] | IC50 [6, 9] | IC50 [6, 10] | Resistance Factor [7] | further results
1 | Nc1ccn([C@@H]2O[C@H](CO)[C@@H](O)[C@@H]2O)c(=O)n1 [Cytarabine, cytarabine] | significantly increased resistance | – | – | – | – | – | –
2 | Nc1ccn([C@@H]2CO[C@H](COC(=O)C34CCC[C@@H]5C[C@@H]3C[C@H]5C4)O2)c(=O)n1 [Compound 232, HEXAHYDRO-2,5-METHANO-PENTA- LENE-3A-CARBOXYLIC ACID 4-(4-AMINO-2-OXO-2H-PYRIMI- DIN-1-YL)-[1,3]DI- OXOLAN-2-YL METHYL ESTER] | – | 160 nM | 3.7 nM | 5800 nM | 0.53 nM | 210 | IC50 [3]: 20 nM; IC50 [4]: 6.9 nM; IC50 [5]: 10 nM; IC50 ([6]; read-out: IC50 (3H-TdR incorporation at 72 hr) CCRF-CEM 24 h, CCRF-CEM T-cell leukemia): 1.9 nM; IC50 ([6]; read-out: IC50 (3H-TdR incorporation at 72 hr) CEM/dCK- 24 h, CEM/dCK- (CCRF-CEM deoxycytidine kinase-deficient)): 4500 nM; IC50 ([6]; read-out: IC50 (3H-TdR incorporation at 72 hr) H-460 24 h, H-460 human lung carcinoma): 0.38 nM; IC50 ([7]; read-out: IC50 (MMT or WST-1 at 72 hr) CEM/dCK-, 24 h exposure, single experiments): 2100 nM
3 | Cc1ccc(C)c(OCCCC(C)(C)C(=O)OC[C@H]2OC[C@@H](n3ccc(N)nc3=O)O2)c1 [Compound 237] | – | 3300 nM | 1.6 nM | 18000 nM | 2.6 nM | – | IC50 ([6]; MCF7, read-out: IC50 (3H-TdR incorporation at 72 hr) MCF-7 24 h, MCF-7 human breast carcinoma): ≤ 0.1 nM; IC50 ([6]; SF-268, read-out: IC50 (3H-TdR incorporation at 72 hr) SF-268 24 h, SF-268 human central nervous system tumor): 88 nM; Resistance Factor = Ratio of dCK- on Wild-type CCRF-CEM ([6]; ratio of IC50 CEM/dCK- to IC50 CCRF-CEM): 11,250
4 | Nc1ccn([C@@H]2O[C@H](CO)[C@@H](O)C2(F)F)c(=O)n1 [Gemcitabine, gemcitabine] | significantly increased resistance | – | – | – | – | – | EC50 ([1]; Homo sapiens, CCRF-CEM, 48 h, read-out: Chemosensitivity, 50% of the dose response curve (EC50), CEM + NBMPR (100 nM), 48 h exposure, mean ± SD): 70 ± 18 nM
5 | CCCCC(C)(C)C(=O)OC[C@H]1OC[C@@H](n2ccc(N)nc2=O)O1.Cl [Compound 107, 2,2-DIMETHYLHEXANOIC ACID 4-(4-AMINO-2-OXO-2H-PYRI- MIDIN-1-YL)-1,3-DI- OXOLAN-2-YLMETHYL ESTER HYDROCHLORIDE] | – | – | – | – | – | 2,042 | –
